This passage reports IC90 and IC50 results from ChEMBL document CHEMBL1127283, “Structure of maesaquinone” (Bioorg Med Chem Lett, 1994).

Experiment [1] concerns the target T1, Polyunsaturated fatty acid 5-lipoxygenase (Homo sapiens) (UniProt P09917).
T1 sequence (whole entry): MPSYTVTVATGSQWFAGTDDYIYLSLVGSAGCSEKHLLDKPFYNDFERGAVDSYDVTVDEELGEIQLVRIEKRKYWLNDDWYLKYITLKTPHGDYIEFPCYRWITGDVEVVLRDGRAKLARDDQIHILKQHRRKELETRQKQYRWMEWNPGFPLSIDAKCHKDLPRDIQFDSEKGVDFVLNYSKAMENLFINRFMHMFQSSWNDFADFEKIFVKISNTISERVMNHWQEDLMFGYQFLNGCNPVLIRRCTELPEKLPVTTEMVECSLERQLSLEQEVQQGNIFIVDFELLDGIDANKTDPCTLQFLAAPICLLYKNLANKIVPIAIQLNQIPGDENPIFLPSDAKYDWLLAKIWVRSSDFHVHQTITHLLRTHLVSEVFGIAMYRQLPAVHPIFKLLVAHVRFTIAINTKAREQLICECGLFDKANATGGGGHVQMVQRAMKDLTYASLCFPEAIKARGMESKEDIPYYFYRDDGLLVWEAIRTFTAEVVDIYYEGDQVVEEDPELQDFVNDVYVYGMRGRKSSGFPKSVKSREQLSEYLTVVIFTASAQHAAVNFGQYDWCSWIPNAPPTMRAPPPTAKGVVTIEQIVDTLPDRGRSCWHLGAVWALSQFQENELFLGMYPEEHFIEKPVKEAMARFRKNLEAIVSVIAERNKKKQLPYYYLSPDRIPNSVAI
The experiment can be described thus: Compound was tested for its inhibitory activity against 5-lipoxygenase.

The test system of experiment [2] is HeLa. Put plainly: Compound was tested for its cytotoxicity against HeLa epithelioid cervix carcinoma cells. In kind it is functional, cell-based. The conditions noted are these: Homo sapiens.
For the next experiment, the system named is BT-20. Put plainly: Compound was tested for its cytotoxicity against BT-20 breast carcinoma cells. The conditions noted are these: Homo sapiens. In kind it is functional, cell-based.
The subject of experiment [3] is HeLa. The experiment can be described thus: Compound was tested for its cytotoxicity against HeLa epithelioid cervix carcinoma cells. In kind it is functional, cell-based. To be noted: Homo sapiens.

Values after ≈ are worked out from the molar mass of the structure shown.

In the case of `CCCC/C=C\CCCCCCCCCC1=C(O)C(OC)=CC(=O)C1=O`, the IC90 (usually the concentration at which the effect reaches the 90% level) in experiment [1] came out at 3000 nM. Besides, the IC50 – broadly, the concentration needed to halve the response being measured – with HeLa [2] came to 1.25 µg/mL (≈ 3.45 µM); in the experiment with BT-20, 1.8 µg/mL (≈ 4.97 µM).

On to `CCCC/C=C\CCCCCCCCCC1=C(O)C(O)=C(C)C(=O)C1=O`, for which the IC50 is 1.58 µg/mL (≈ 4.36 µM) in the experiment with BT-20 and 2.05 µg/mL (≈ 5.66 µM) in the experiment on HeLa [3].
